Assay results: patent US20070275944A1, “Antioxidants and methods of their use” (The Board of Trustees Operating Michigan State University, priority 2006, published 2007)

Tested on: mouse brain, dopaminergic neurons
Test: MRI imaging of mouse brain after injection of tracer
Assay type: in vivo
Details: mice, MRI images 48 hours after administration
From the text: The central figure is a chimera directly comparing the left hemisphere of the control with the right hemisphere of the TP-TEMPO treated. In this central image the “Y” shaped region (1) is where the dopaminergic neurons are found.
With its dependence on the more biologically variable parameters of proton density, longitudinal relaxation time (T1), and transverse relaxation time (T2), variable image contrast can be achieved by using different pulse sequences and by changing the imaging parameters. Signal intensities on T1, T2, and proton density-weighted images relate to specific tissue characteristics. Moreover, with MRI's multi-planar capability, the imaging plane can be optimized for the anatomic area being studied, and the relationship of lesions to eloquent areas of the brain can be defined more accurately. Since T2-weighted images are most sensitive for detecting brain pathology, patients with suspected intracranial disease are typically screened using the T2-weighted regime. However, it has proven difficult to apply MRI to Parkinson's disease, as the dompaminergic neurons have the same MRI characteristics as the surrounding tissues, so that the Parkinson's lesions are invisible using conventional MRI and can only be detected using histology post-mortem. […]

SMILES: CN1CC=C(C2CC(C)(C)N(O)C(C)(C)C2)CC1 [TP-TEMPO, 2,2,6,6-tetramethyl-4-(1-methyl-1,2,3,6-tetrahydropyridin-4-yl)piperidin-1-oxyl]
- migration of probe to the dopaminergic neurons: preferentially migrated to the dopaminergic neurons
- partitioning of probe into the brain: partitioned preferentially into the brain
